# Test system: T1, IRAK1/4 human
# T1 construct: fused on or other part: His tag and TEV cleavage site at the N-terminus
# Test: IRAK1/4 phosphorylation IC50 (enzymatic assay, table 2)
# Assay type: biochemical
# Conditions: human IRAK1/4 phosphorylation
# How it was run: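 Inhibition values are IC50s. They come from 384-well reactions in which His-TEV-tagged human IRAK-1 or IRAK-4 (the latter with STK1-biotin peptide) met ATP and compounds in DMSO at 20 µM to 1 nM. The buffer was 50 mM Hepes pH7.0 containing MgCl2, DTT, EGTA and BSA, and incubation lasted 2 or 3 hours.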
row,IC50 [nM],Structure (SMILES)
1,100 to 1000,"CC(C)Cc1ccc2[nH]nc(-c3cn(-c4ccc(C(=O)N5CCC(N(C)C)CC5)cc4)nn3)c2c1 [Example 139, 1-{4-[4(5-isobutyl-1H-indazol-3-yl)-1H-1,2,3-triazol-1-yl]benzoyl}-N,N-dimethylpiperidin-4-amine]"
2,100 to 1000,"COC(=O)c1ccc2[nH]nc(-c3cn(-c4ccc(CN5CCOCC5)cc4)nn3)c2c1 [Example 142, methyl 3-{1-[4-(morpholin-4-ylmethyl)phenyl]-1H-1,2,3-triazol-4-yl}-1H-indazole-5-carboxylate]"
3,100 to 1000,"CN1CCC(NC(=O)c2ccc3[nH]nc(-c4cn(-c5ccc(CN6CCOCC6)cc5)nn4)c3c2)CC1 [Example 143, N-(1-methylpiperidin-4-yl)-3-{1-[4-(morpholin-4-ylmethyl)phenyl]-1H-1,2,3-triazol-4-yl}-1H-indazole-5-carboxamide]"
4,100 to 1000,"O=C(c1ccc(-n2cc(-c3n[nH]c4cc(C#CCO)ccc34)nn2)cc1)N1CCOCC1 [Example 146, 3-(3-{1-[4-(morpholin-4-ylcarbonyl)phenyl]-1H-1,2,3-triazol-4-yl}-1H-indazol-6-yl)prop-2-yn-1-ol]"
5,100 to 1000,"OC(c1ccc(-n2cc(-c3n[nH]c4ccccc34)nn2)cc1)C(F)(F)F (stereo not drawn) [Example 150, 2,2,2-trifluoro-1-{4-[4-(1H-indazol-3-yl)-1H-1,2,3-triazol-1-yl]phenyl}ethanol]"
6,100 to 1000,"O=C(c1ccc(-n2cc(-c3n[nH]c4ccc(OCCCO)cc34)nn2)cc1)N1CCOCC1 [Example 153, 3-[(3-{1-[4-(morpholin-4-ylcarbonyl)phenyl]-1H-1,2,3-triazol-4-yl}-1H-indazol-5-yl)oxy]propan-1-ol]"
7,100 to 1000,"O=C1C[C@H](OCc2ccc3[nH]nc(-c4cn(-c5ccc(C(=O)N6CCOCC6)cc5)nn4)c3c2)CO1 [Example 154, (4S)-4-[(3-{1-[4-(morpholin-4-ylcarbonyl)phenyl]-1H-1,2,3-triazol-4-yl}-1H-indazol-5-yl)methoxy]dihydrofuran-2(3H)-one]"
8,100 to 1000,O=C(c1ccc(-n2cc(-c3n[nH]c4ccc(F)cc34)nn2)cc1)N1CCOCC1 [Example 157]
9,100 to 1000,CC1CN(C(=O)c2ccc(-n3cc(-c4n[nH]c5ccccc45)nn3)cc2)CCO1 (stereo not drawn) [Example 160]
10,100 to 1000,O=C(c1ccc(-n2cc(-c3n[nH]c4ccccc34)nn2)cc1)N1CCOC(CO)C1 (stereo not drawn) [Example 161]
11,100 to 1000,CN1CCCC2(CCCN(C(=O)c3ccc(-n4cc(-c5n[nH]c6ccccc56)nn4)cc3)C2)C1=O (stereo not drawn) [Example 163]
12,100 to 1000,COCCC1CN(C(=O)c2ccc(-n3cc(-c4n[nH]c5ccccc45)nn3)cc2)CCO1 (stereo not drawn) [Example 168]
13,100 to 1000,O=C(c1ccc(-n2cc(-c3n[nH]c4ccccc34)nn2)cc1)N1CC2(COC2)C1 [Example 170]
14,100 to 1000,CN(C(=O)c1ccc(-n2cc(-c3n[nH]c4ccccc34)nn2)cc1)C1CCOCC1 [Example 171]
15,100 to 1000,CN(C)C1CCN(C(=O)c2ccc(-n3cc(-c4n[nH]c5ccc(C6=CCOCC6)cc45)nn3)cc2)CC1 [Example 173]
16,100 to 1000,CN(C)C1CCN(C(=O)c2ccc(-n3cc(-c4n[nH]c5ccc(C6=CCCCC6)cc45)nn3)cc2)CC1 [Example 174]

row,IC50 [nM],Structure (SMILES)
1,100 to 1000,O=C(Nc1cnn(CCc2ccncc2)c1)c1ccc(-n2cc(-c3n[nH]c4ccccc34)nn2)cc1 [Example 176]
2,100 to 1000,CN(C)C1CCN(C(=O)c2ccc(-n3cc(-c4n[nH]c5ccc(C6CCOCC6)cc45)nn3)cc2)CC1 [Example 178]
3,100 to 1000,CN(C)C1CCN(C(=O)c2ccc(-n3cc(-c4n[nH]c5ccc(C6CCCCC6)cc45)nn3)cc2)CC1 [Example 179]
4,100 to 1000,COc1cnccc1-c1ccc2[nH]nc(-c3cn(-c4ccc(C(=O)N5CCOCC5)cc4)nn3)c2c1 [Example 181]
5,100 to 1000,CN(C)C1CCN(C(=O)c2ccc(-n3cc(-c4n[nH]c5ccc(C6CCCC6)cc45)nn3)cc2)CC1 [Example 183]
6,< 100,Cc1ccc2c(-c3cn(-c4ccc(C(=O)N5CCOCC5)cc4)nn3)n[nH]c2c1 [Example 184]
7,100 to 1000,O=C(c1ccc(-n2cc(-c3n[nH]c4cc(Cl)ccc34)nn2)cc1)N1CCOCC1 [Example 185]
8,100 to 1000,O=C(c1ccc(-n2cc(-c3n[nH]c4cc(F)ccc34)nn2)cc1)N1CCOCC1 [Example 194]
9,100 to 1000,COc1ccc2c(-c3cn(-c4ccc(C(=O)N5CCOCC5)cc4)nn3)n[nH]c2c1 [Example 195]
10,< 100,O=c1ccc(-c2cccc(O)c2)nn1Cc1ccc2[nH]nc(-c3cn(-c4ccc(CN5CCOCC5)cc4)nn3)c2c1 [Example 200]
11,100 to 1000,C=C(C)c1ccc2c(-c3cn(-c4ccc(C(=O)N5CCOCC5)cc4)nn3)n[nH]c2c1 [Example 201]
12,1000 to 5000,COc1cc2[nH]nc(-c3cn(-c4ccc(C(=O)N5CCOCC5)cc4)nn3)c2cc1Br [Example 202]
13,100 to 1000,c1ccc2c(-c3cn(-c4ccc(CC5CCNCC5)cc4)nn3)n[nH]c2c1 [Example 205]
14,100 to 1000,CC(C)c1ccc2c(-c3cn(-c4ccc(C(=O)N5CCOCC5)cc4)nn3)n[nH]c2c1 [Example 206]
15,1000 to 5000,O=C(c1ccc(-n2cc(-c3n[nH]c4cc(-c5ccc(CO)cc5)ccc34)nn2)cc1)N1CCOCC1 [Example 207]

# Continued, molecule first:
row,Structure (SMILES),IC50 [nM]
1,"CN1C2CCC1CC(n1cc(-n3cc(-c4n[nH]c5ccccc45)nn3)cn1)C2 (stereo not drawn) [Example 140, 3-{1-[1-(8-methyl-8-azabicyclo[3.2.1]oct-3-yl)-1H-pyrazol-4-yl]-1H-1,2,3-triazol-4-yl}-1H-indazole]",< 100
2,"O=C(c1ccc(-n2cc(-c3n[nH]c4ccc(Cn5nc(-c6ccc(O)cc6)ccc5=O)cc34)nn2)cc1)N1CCOCC1 [Example 144, 6-(4-hydroxyphenyl)-2-[(3-{1-[4-(morpholin-4-ylcarbonyl)phenyl]-1H-1,2,3-triazol-4-yl}-1H-indazol-5-yl)methyl]pyridazin-3(2H)-one]",< 100
3,"O=C(c1ccc(-n2cc(-c3n[nH]c4cc(CCCO)ccc34)nn2)cc1)N1CCOCC1 [Example 147, 3-(3-{1-[4-(morpholin-ylcarbonyl)phenyl]-1H-1,2,3-triazol-4-yl}-1H-indazol-6-yl)propan-1-ol]",100 to 1000
4,"CN1CCCC(Nc2ccc3[nH]nc(-c4cn(-c5ccc(C(=O)N6CCOCC6)cc5)nn4)c3c2)C1 (stereo not drawn) [Example 148, N-(1-methylpiperidin-3-yl)-3-{1-[4-(morpholin-4-ylcarbonyl)phenyl]-1H-1,2,3-triazol-4-yl}-1H-indazol-5-amine]",< 100
5,"CN(C)C1CCN(c2ccc3[nH]nc(-c4cn(-c5ccc(C(=O)N6CCOCC6)cc5)nn4)c3c2)C1 (stereo not drawn) [Example 149, N,N-dimethyl-1-(3-{1-[4-(morpholin-4-ylcarbonyl)phenyl]-1H-1,2,3-triazol-4-yl}-1H-indazol-5-yl)pyrrolidin-3-amine]",< 100
6,O=C(c1ccc(-n2cc(-c3n[nH]c4ccccc34)nn2)cn1)N1CCOCC1 [Example 155],100 to 1000
7,O=C(c1ccc(-n2cc(-c3n[nH]c4ccc(C(F)(F)F)cc34)nn2)cc1)N1CCOCC1 [Example 156],100 to 1000
8,CN(C)C1CCN(C(=O)c2ccc(-n3cc(-c4n[nH]c5ccc(C(F)(F)F)cc45)nn3)cc2)CC1 [Example 159],100 to 1000
9,CC1(C)CN(C(=O)c2ccc(-n3cc(-c4n[nH]c5ccccc45)nn3)cc2)CCO1 [Example 162],100 to 1000
10,CCOCC1CCCN(C(=O)c2ccc(-n3cc(-c4n[nH]c5ccccc45)nn3)cc2)C1 (stereo not drawn) [Example 164],100 to 1000
11,O=C(c1ccc(-n2cc(-c3n[nH]c4ccccc34)nn2)cc1)N1CCCC2(COC2)C1 [Example 165],100 to 1000
12,O=C(c1ccc(-n2cc(-c3n[nH]c4ccccc34)nn2)cc1)N1CCN2CCCC2C1 (stereo not drawn) [Example 166],100 to 1000
13,O=C(c1ccc(-n2cc(-c3n[nH]c4ccccc34)nn2)cc1)N1CCOC(CCO)C1 (stereo not drawn) [Example 167],100 to 1000
14,O=C(Nc1cnn(C2CCNC2)c1)c1ccc(-n2cc(-c3n[nH]c4ccccc34)nn2)cc1 (stereo not drawn) [Example 169],100 to 1000
15,CN(C)C1CCN(C(=O)c2ccc(-n3cc(-c4n[nH]c5ccc(C6=CCCC6)cc45)nn3)cc2)CC1 [Example 172],100 to 1000
16,Cc1cccc2[nH]nc(-c3cn(-c4ccc(C(=O)N5CCOCC5)cc4)nn3)c12 [Example 175],1000 to 5000
17,O=C(c1ccc(-n2cc(-c3n[nH]c4ccc(Cn5nc(-c6cccnc6)ccc5=O)cc34)nn2)cc1)N1CCOCC1 [Example 177],< 100
18,c1ccc2c(-c3cn(-c4cnn(CCN5CCOCC5)c4)nn3)n[nH]c2c1 [Example 180],100 to 1000
19,O=C(c1ccc(-n2cc(-c3n[nH]c4cccc(F)c34)nn2)cc1)N1CCOCC1 [Example 182],1000 to 5000
20,CN1CCC(n2cc(-n3cc(-c4n[nH]c5ccccc45)nn3)cn2)CC1 [Example 186],< 100
21,OCc1ccc(-n2cc(-c3n[nH]c4ccccc34)nn2)cc1 [Example 187],100 to 1000
22,COc1cc2[nH]nc(-c3cn(-c4ccc(C(=O)N5CCOCC5)cc4)nn3)c2cc1OC [Example 189],100 to 1000
23,O=C(c1ccc(-n2cc(-c3n[nH]c4ccc(Cn5nc(-c6ccc(O)c(F)c6)ccc5=O)cc34)nn2)cc1)N1CCOCC1 [Example 190],< 100
24,O=C(c1ccc(-n2cc(-c3n[nH]c4ccc(O)cc34)nn2)cc1)N1CCOCC1 [Example 192],< 100
25,O=C(c1ccc(-n2cc(-c3n[nH]c4ccc(Cl)cc34)nn2)cc1)N1CCOCC1 [Example 193],100 to 1000
26,O=c1ccc(-c2ccncc2)nn1Cc1ccc2[nH]nc(-c3cn(-c4ccc(CN5CCOCC5)cc4)nn3)c2c1 [Example 196],< 100
27,OCc1ccc2[nH]nc(-c3cn(-c4ccc(CN5CCOCC5)cc4)nn3)c2c1 [Example 198],100 to 1000
28,O=c1ccc(-c2ccc(O)cc2)nn1Cc1ccc2[nH]nc(-c3cn(-c4ccc(CN5CCOCC5)cc4)nn3)c2c1 [Example 199],100 to 1000
29,O=C(c1ccc(-n2cc(-c3n[nH]c4cc(-c5ccccc5)ccc34)nn2)cc1)N1CCOCC1 [Example 203],1000 to 5000
